The test system of assay [1] is A431. Nature of the assay: A431 CellTiter-Glo. The assay is classed as cell-based. As to conditions: Homo sapiens, A-431; 72 h compound incubation; read-out: A431 CTG IC50. As for the experimental part:
(§1) 2. Measurement of Cellular Activity
(§2) The CellTiter-Glo Luminescent Cell Viability Assay (Promega) is a homogeneous method of determining the number of viable cells in culture. It is based on quantification of ATP, indicating the presence of metabolically active cells. Cells are seeded on day 1 at cell numbers that assure assay linearity and optimal signal intensity. After incubation for 24 h in humidified chambers at 37° C. and 5% CO2, compounds in DMSO are added at different concentrations. Cells are further incubated for 72 h at 37° C. and 5% CO2. Cells treated with the compound vehicle DMSO are used as positive controls and cells treated with 10 μM Staurosporine serve as negative controls. At day 5 the CellTiter Glo Reagent is prepared according to the instructions of the kit (Promega Inc.): Reagent is mixed 1:1 with cell culture medium. Thereon, mixture and assay plates are equilibrated at room temperature for 20 min. Equal volumes of the reagent-medium-mixture is added to the volume of culture medium present in each well. The plates are mixed at ˜200 rpm for 2 minutes on an orbital shaker. The microplates are then incubated at room temperature for 10 minutes for stabilization of the luminescent signal. Following incubation the luminescence is recorded on a Victor microplate reader (Perkin Elmer) using a 200 ms integration time. The data is then analyzed with Excel using the XLFIT Plugin (dose response Fit 205) for IC50-determination. As quality control the Z′-factor is calculated from 16 positive and negative control values. Only assay results showing a Z′-factor ≥0.5 are used for further analysis.
(§3) Inhibition is indicated as […] [nM] (“−”=not measured). Compounds having an activity designated as “A” provided an IC50≤100 nM; compounds having an activity designated as “B” provided an 100 nM<IC50≤500 nM; compounds having an activity designated as “C” provided an 500 nM<IC50≤1000 nM; compounds having an activity designated as “D” provided an 1000 nM<IC50≤100000 nM; and compounds having an activity designated as “E” provided an IC50>10000 nM.

The target of assay [2] is T1, HER2 INS YVMA (Homo sapiens, UniProt P04626, INS775YVMA).
T1 construct: purchased DPF
As to the kind of experiment: Lance Kinase Activity Assay, HER2 INS YVMA (Her2 Exon 20 INSYVMA Lance). It counts as biochemical. As to conditions: biochemical Lance assay. As for the experimental part:
1. Measurement of HER2 INS YVMA Kinase Activity
This protocol describes how the Lance Kinase Activity Assay was performed to determine IC50 values of compounds of general formula (I) against HER2 INS YVMA. The principle behind this enzymatic assay is based upon the phosphorylation of the Ulight-peptide substrate. It is detected by using a specific EU-labeled anti-phospho peptide antibody. The binding of the Eu labeled anti-phospho peptide antibody to the phosphorylated ULight labeled peptide gives rise to a FRET-signal.
Binding of an inhibitor to the kinase prevents phosphorylation of the Ulight-substrate, resulting in a loss of FRET. In table 2 is summarized the relevant information for the LANCE assay.
The compounds of general formula (I) summarized in Table 3 were serial diluted from a 10 mM DMSO stock solution 1:3 over 8 steps in a total volume of 20 μl.
For every sample, 8 μl of kinase-substrate mix was transferred into a suitable assay plate (e.g. Corning #3673). Compound was added via pintool transfer (10 nl/well) using a Biomek FX robot (BeckmanCoulter). Reaction was started by addition of 2 μl ATP working solution and mixed using variomag teleshaker (Thermo Fischer Scientific). After 1 h incubation at room temperature the reaction was stopped with 10 μl detection mix containing the Eu-labeled phosphospecific antibody and 10 mM EDTA. After a second incubation period of 1 h at room temperature the FRET signal was measured at 340 nm excitation, 665 nm and 615 nm emission (for the ULight-substrate and Eu-AB, respectively) with an Envision spectrophotometer (Perkin Elmer, Waltham, Mass., USA) with 50 μs delay and 300 μs integration time. IC50 values were determined from the sigmoidal dose response curves with the software Quattro Workflow (Quattro GmbH, Munich, Germany).

The target in assay [3] is EGFR T790ML858R (Homo sapiens, UniProt P00533, L858R/T790M). As to the kind of experiment: EGFR T790ML858R Lance assay. It counts as biochemical. The protocol: as §3
For assay [4], the system named is H1975. Nature of the assay: H1975 CellTiter-Glo. It counts as cell-based. The settings on record: Homo sapiens, NCI-H1975; 72 h compound incubation; read-out: H1975 CTG IC50. As for the experimental part:
as §1, §2, §3
(ATP-based viability assays read luminescence as a measure of living cells.)

For assay [5], the target named is Her2 Exon 20 INSYVMA Ba/F3 (Homo sapiens, UniProt P04626, DUP772-775, cells depend on it). As to the kind of experiment: Her2 Exon 20 INSYVMA Ba/F3 CellTiter-Glo. It counts as cell-based. The settings on record: CellTiter-Glo, 72 h, read-out: Her2 Exon 20 INSYVMA Ba/F3 CTG IC50. The protocol:
as §1, §2
(§4) Inhibition is indicated as IC50 [nM] (“−”=not measured). Compounds having an activity designated as “A” provided an IC50≤100 nM; compounds having an activity designated as “B” provided an 100 nM<IC50≤500 nM; compounds having an activity designated as “C” provided an 500 nM<IC50≤1000 nM; compounds having an activity designated as “D” provided an 1000 nM<IC50≤10000 nM; and compounds having an activity designated as “E” provided an IC50>10000 nM.

Assay [6] addresses EGFR Exon 20 INSNPH Ba/F3 (Homo sapiens, UniProt P00533, DUP771-773, cells depend on it). As to the kind of experiment: EGFR Exon 20 INSNPH Ba/F3 CellTiter-Glo. It counts as cell-based. As to conditions: CellTiter-Glo, 72 h, read-out: EGFR Exon 20 INSNPH Ba/F3 CTG IC50. As for the experimental part: as §1, §2, §4
Assay [7] has as its target EGFR wt (Homo sapiens, UniProt P00533). As to the kind of experiment: EGFR wt Lance assay. It counts as biochemical. The protocol: as §3

The text below walks through data of patent publication US20220370440A1 (Lead Discovery Center GmbH, priority 2018, published 2022).

Structures are written as SMILES.

As usually defined, the IC50 is the concentration that inhibits the measured activity by half.

Sequence of Her2 Exon 20 INSYVMA Ba/F3 (P04626 with tags, fused parts or gaps DUP772-775): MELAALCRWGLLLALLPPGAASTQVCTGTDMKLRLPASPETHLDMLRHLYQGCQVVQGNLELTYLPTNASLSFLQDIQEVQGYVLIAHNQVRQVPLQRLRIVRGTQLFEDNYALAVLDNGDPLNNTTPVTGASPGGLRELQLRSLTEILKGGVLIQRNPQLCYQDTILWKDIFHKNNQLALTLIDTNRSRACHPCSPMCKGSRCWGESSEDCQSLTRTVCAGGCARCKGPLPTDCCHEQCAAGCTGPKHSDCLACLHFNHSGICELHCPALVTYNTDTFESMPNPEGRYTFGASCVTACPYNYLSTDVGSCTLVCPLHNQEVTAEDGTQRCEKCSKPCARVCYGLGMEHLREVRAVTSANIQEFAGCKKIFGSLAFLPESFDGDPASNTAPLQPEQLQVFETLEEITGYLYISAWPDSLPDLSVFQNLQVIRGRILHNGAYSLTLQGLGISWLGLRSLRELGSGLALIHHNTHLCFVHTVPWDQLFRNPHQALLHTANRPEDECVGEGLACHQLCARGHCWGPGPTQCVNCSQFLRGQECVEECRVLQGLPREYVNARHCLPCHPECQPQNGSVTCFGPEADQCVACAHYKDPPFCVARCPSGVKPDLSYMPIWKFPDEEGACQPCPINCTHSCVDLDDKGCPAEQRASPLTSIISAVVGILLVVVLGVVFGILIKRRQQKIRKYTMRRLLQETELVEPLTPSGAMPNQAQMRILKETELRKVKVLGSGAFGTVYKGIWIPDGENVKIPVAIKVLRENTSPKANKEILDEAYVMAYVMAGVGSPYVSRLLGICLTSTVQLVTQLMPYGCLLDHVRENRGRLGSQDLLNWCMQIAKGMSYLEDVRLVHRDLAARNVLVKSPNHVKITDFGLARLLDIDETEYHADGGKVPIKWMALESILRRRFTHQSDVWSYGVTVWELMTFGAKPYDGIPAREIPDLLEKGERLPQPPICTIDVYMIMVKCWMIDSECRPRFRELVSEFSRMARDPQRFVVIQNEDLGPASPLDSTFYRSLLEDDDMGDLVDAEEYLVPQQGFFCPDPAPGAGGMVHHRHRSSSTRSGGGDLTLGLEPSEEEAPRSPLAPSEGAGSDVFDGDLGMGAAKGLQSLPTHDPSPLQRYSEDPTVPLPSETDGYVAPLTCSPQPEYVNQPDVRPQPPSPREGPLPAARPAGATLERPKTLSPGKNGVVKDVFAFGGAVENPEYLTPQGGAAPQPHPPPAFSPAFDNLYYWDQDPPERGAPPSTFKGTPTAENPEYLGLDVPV
T1 sequence (P04626 with tags, fused parts or gaps INS775YVMA): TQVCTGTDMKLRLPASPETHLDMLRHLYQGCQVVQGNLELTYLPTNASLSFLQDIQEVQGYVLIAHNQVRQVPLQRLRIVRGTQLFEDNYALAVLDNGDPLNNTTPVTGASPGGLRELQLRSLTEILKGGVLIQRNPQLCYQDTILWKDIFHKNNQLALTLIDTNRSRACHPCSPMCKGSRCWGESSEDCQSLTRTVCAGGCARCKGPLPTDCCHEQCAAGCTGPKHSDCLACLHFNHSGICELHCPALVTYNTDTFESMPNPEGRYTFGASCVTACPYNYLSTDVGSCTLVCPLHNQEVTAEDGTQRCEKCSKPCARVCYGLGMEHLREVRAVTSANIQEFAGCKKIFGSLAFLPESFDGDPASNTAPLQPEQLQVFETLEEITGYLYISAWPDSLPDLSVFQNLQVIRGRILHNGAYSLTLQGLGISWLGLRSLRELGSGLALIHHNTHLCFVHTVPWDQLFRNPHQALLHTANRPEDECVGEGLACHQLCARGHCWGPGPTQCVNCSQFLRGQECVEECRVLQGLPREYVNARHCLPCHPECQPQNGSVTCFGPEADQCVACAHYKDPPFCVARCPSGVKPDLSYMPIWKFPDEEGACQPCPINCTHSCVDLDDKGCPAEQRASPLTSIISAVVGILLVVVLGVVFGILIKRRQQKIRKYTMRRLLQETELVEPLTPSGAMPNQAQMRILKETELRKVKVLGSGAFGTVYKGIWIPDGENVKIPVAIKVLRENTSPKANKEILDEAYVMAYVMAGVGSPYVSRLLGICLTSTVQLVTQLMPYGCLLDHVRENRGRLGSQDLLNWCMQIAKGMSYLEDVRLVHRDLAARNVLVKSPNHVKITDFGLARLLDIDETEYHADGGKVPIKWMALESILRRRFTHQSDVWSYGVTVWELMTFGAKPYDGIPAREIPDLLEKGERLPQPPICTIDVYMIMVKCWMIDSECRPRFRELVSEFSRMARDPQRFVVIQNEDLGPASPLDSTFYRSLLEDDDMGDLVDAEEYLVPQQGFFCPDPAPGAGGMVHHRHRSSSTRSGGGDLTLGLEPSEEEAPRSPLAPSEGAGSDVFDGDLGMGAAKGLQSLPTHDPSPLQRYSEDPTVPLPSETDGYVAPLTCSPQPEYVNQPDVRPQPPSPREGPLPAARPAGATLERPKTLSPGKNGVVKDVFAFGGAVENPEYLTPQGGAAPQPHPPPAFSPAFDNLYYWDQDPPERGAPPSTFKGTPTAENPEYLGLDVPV
Sequence of EGFR T790ML858R (P00533 25-1210 T790M/L858R): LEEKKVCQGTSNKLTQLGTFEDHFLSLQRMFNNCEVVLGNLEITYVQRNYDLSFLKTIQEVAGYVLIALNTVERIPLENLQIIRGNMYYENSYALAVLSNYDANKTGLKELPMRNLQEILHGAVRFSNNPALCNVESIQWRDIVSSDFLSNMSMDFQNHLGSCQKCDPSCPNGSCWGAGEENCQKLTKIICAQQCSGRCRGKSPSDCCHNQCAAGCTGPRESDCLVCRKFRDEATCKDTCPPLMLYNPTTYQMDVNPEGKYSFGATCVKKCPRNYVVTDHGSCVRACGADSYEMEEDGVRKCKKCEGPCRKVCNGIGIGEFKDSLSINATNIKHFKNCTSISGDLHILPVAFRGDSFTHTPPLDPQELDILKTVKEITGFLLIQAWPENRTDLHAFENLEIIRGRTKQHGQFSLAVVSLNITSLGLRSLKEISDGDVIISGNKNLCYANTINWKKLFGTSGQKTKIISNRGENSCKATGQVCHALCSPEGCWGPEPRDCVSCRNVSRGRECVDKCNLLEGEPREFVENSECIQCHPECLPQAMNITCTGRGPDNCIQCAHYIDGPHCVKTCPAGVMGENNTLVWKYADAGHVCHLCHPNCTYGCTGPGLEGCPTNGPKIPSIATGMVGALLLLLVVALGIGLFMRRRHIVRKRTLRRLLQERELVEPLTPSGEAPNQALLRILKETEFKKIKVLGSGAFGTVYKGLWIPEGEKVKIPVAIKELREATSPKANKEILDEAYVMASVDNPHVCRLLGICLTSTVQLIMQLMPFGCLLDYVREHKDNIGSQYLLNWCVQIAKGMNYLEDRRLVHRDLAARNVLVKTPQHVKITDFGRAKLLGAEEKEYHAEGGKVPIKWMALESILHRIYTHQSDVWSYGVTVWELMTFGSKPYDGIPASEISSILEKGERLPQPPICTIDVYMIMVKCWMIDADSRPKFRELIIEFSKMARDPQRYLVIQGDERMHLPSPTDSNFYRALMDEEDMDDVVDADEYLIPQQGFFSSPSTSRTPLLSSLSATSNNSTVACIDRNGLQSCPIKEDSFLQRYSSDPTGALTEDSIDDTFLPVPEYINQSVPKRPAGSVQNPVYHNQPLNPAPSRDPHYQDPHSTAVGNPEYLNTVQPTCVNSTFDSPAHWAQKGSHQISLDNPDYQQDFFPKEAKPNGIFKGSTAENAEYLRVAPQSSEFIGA
Sequence of EGFR Exon 20 INSNPH Ba/F3 (P00533 with tags, fused parts or gaps DUP771-773): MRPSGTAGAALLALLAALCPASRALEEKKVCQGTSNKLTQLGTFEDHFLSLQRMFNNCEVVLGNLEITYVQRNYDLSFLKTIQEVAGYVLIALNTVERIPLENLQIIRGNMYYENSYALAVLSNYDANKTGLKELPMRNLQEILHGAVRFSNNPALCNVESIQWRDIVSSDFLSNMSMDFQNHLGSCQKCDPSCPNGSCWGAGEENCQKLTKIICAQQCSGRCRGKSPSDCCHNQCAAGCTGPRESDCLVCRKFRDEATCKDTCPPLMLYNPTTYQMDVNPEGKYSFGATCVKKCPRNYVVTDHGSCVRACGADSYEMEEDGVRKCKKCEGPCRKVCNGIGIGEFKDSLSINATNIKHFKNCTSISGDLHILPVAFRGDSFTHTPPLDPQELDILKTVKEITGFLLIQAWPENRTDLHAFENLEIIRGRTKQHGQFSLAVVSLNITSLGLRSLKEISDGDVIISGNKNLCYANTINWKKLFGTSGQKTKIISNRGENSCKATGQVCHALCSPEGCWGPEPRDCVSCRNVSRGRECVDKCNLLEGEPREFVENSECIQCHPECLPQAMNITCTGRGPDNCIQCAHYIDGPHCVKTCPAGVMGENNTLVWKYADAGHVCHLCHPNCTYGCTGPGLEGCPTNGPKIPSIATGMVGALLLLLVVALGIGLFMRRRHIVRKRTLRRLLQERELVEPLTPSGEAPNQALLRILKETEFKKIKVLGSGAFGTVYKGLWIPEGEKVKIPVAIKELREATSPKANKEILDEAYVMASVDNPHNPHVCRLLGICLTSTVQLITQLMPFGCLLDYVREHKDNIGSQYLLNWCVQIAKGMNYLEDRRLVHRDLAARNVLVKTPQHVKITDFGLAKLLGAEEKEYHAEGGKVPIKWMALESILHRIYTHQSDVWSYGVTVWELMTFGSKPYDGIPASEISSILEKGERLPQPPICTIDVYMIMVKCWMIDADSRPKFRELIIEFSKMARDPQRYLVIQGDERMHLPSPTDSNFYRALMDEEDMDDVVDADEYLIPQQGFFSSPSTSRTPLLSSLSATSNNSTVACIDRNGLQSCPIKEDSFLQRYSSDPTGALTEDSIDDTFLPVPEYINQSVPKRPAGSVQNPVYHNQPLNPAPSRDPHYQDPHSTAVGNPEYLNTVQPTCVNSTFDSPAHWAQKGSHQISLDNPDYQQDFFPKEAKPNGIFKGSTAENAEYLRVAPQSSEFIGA

Take `C=CC(=O)Nc1cc(-c2c(-c3ccc(N4CCN(C(C)=O)CC4)cc3)[nH]c3ncc(C(=O)OC(C)C)cc23)ccc1C` [Example 162, isopropyl 2-(4-(4-acetylpiperazin-1-yl)phenyl)-3-(3-acrylamido-4-methylphenyl)-1H-pyrrolo[2,3-b]pyridine-5-carboxylate]: the IC50 was 1000 to 100000 nM in assay [1]; ≤ 100 nM in assay [2]; ≤ 100 nM in assay [3]; 1000 to 100000 nM in assay [4]; ≤ 100 nM in assay [7]. In addition, the GI50 in assay [5] was 1000 to 10000 nM; in assay [6], 500 to 1000 nM.

`C=CC(=O)Nc1cc(-c2c(-c3cnc(N4CCOCC4)nc3)[nH]c3ncc(C(=O)OC(C)C)cc23)ccc1C` [Example 173, isopropyl 3-(3-acrylamido-4-methylphenyl)-2-(2-morpholinopyrimidin-5-yl)-1H-pyrrolo[2,3-b]pyridine-5-carboxylate]: the half-maximal inhibitory concentration (IC50) in assay [1] was 1000 to 100000 nM; in assay [2], > 10000 nM; in assay [3] it was 1000 to 100000 nM; in assay [4] it was 1000 to 100000 nM; in assay [7], 500 to 1000 nM. The GI50 in assay [5] and in assay [6] was 1000 to 10000 nM each time.

In the case of `C=CC(=O)Nc1cc(-c2c(-c3ccc(C4CCN(C)CC4)cc3)[nH]c3nccc(Cl)c23)cc(C)c1C` [Example 152, N-(5-(4-chloro-2-(4-(1-methylpiperidin-4-yl)phenyl)-1H-pyrrolo[2,3-b]pyridin-3-yl)-2,3-dimethylphenyl)acrylamide], the IC50 is 500 to 1000 nM in assay [1]; ≤ 100 nM in assay [2]; ≤ 100 nM in assay [3]; ≤ 100 nM in assay [4]; ≤ 100 nM in assay [7]. The GI50 in assay [5] and in assay [6] was 100 to 500 nM throughout.

As to `C=CC(=O)Nc1cc(-c2c(-c3ccnc(N4CCOCC4)c3)[nH]c3ncc(C(=O)OC(C)C)cc23)ccc1C` [Example 166, isopropyl 3-(3-acrylamido-4-methylphenyl)-2-(2-morpholinopyridin-4-yl)-1H-pyrrolo[2,3-b]pyridine-5-carboxylate], the concentration for half-maximal inhibition (IC50) in assay [1] was 1000 to 100000 nM; in assay [2] it was 500 to 1000 nM; in assay [3], 100 to 500 nM; in assay [4] it was 1000 to 100000 nM; in assay [7], ≤ 100 nM. Moreover, the GI50 in assay [5] and in assay [6] was 1000 to 10000 nM throughout.

Regarding `C=CC(=O)Nc1cc(-c2c(-c3ccc(N4CCN(C)CC4)nc3)[nH]c3ncc(C(=O)OC(C)C)cc23)cc(F)c1C` [Example 174, isopropyl 3-(3-acrylamido-5-fluoro-4-methylphenyl)-2-(6-(4-methylpiperazin-1-yl)pyridin-3-yl)-1H-pyrrolo[2,3-b]pyridine-5-carboxylate], the IC50 in assay [1] was 1000 to 100000 nM; in assay [2] it was ≤ 100 nM; in assay [3] it was ≤ 100 nM; in assay [4], 500 to 1000 nM; in assay [7], ≤ 100 nM. Also, the GI50 in assay [5] fell in the range of 500 to 1000 nM; in assay [6], 100 to 500 nM.

In the case of `C=CC(=O)Nc1cc(-c2c(-c3ccc(S(=O)(=O)N4CCN(C)CC4)cc3)[nH]c3ncc(C(=O)OC(C)C)cc23)ccc1C` [Example 167, isopropyl 3-(3-acrylamido-4-methylphenyl)-2-(4-((4-methylpiperazin-1-yl)sulfonyl)phenyl)-1H-pyrrolo[2,3-b]pyridine-5-carboxylate], the IC50 in assay [1] was 1000 to 100000 nM; in assay [2] it was 100 to 500 nM; in assay [3], ≤ 100 nM; in assay [4], 500 to 1000 nM; in assay [7] it was ≤ 100 nM. The GI50 in assay [5] and in assay [6] was 500 to 1000 nM throughout.

In the case of `C=CC(=O)Nc1cc(-c2c(-c3cccc(C(=O)NCCCN4CCCC4)c3)[nH]c3nccc(Cl)c23)ccc1C` [Example 47, 3-(3-(3-acrylamido-4-methylphenyl)-4-chloro-1H-pyrrolo[2,3-b]pyridin-2-yl)-N-(3-(pyrrolidin-1-yl)propyl)benzamide], the IC50 in assay [1] was 500 to 1000 nM; in assay [2], ≤ 100 nM; in assay [3] it was ≤ 100 nM; in assay [4] it was ≤ 100 nM; in assay [7] it was ≤ 100 nM. The GI50 in assay [5] and in assay [6] was 1000 to 10000 nM throughout.

In the case of `C=CC(=O)Nc1cc(-c2c(-c3ccnc(N4CCN(C)CC4)c3)[nH]c3ncc(C(=O)OC(C)C)cc23)cc(F)c1C` [Example 180, isopropyl 3-(3-acrylamido-5-fluoro-4-methylphenyl)-2-(2-(4-methylpiperazin-1-yl)pyridin-4-yl)-1H-pyrrolo[2,3-b]pyridine-5-carboxylate], the half-maximal inhibitory concentration (IC50) was 1000 to 100000 nM in assay [1]; ≤ 100 nM in assay [2]; ≤ 100 nM in assay [3]; 500 to 1000 nM in assay [4]; ≤ 100 nM in assay [7]. Also, the GI50 in assay [5] and in assay [6] was 100 to 500 nM in each case.

Consider `C=CC(=O)Nc1cc(-c2c(-c3cccc(C(=O)NCCCN4CCN(CC)CC4)c3)[nH]c3nccc(Cl)c23)ccc1C` [Example 54, 3-(3-(3-acrylamido-4-methylphenyl)-4-chloro-1H-pyrrolo[2,3-b]pyridin-2-yl)-N-(3-(4-ethylpiperazin-1-yl)propyl)benzamide], for which the IC50 is 1000 to 100000 nM in assay [1]; 100 to 500 nM in assay [2]; ≤ 100 nM in assay [3]; 100 to 500 nM in assay [4]; ≤ 100 nM in assay [7]. Also, the GI50 in assay [5] and in assay [6] was 1000 to 10000 nM each time.

For `C=CC(=O)Nc1cc(-c2c(-c3ccc(OCCN(C)C)cc3)[nH]c3ncc(C(=O)OC(C)C)c(C)c23)ccc1C` [Example 205, isopropyl 3-(3-acrylamido-4-methylphenyl)-2-(4-(2-(dimethylamino)ethoxy)phenyl)-4-methyl-1H-pyrrolo[2,3-b]pyridine-5-carboxylate], the IC50 in assay [1] is 1000 to 100000 nM; in assay [2], ≤ 100 nM; in assay [3], ≤ 100 nM; in assay [4] it was 100 to 500 nM; in assay [7], ≤ 100 nM. Moreover, the GI50 in assay [5] is 100 to 500 nM; in assay [6], ≤ 100 nM.
